{"source": "paper doi:10.64898/2025.12.11.693803v1", "about": "(biorxiv, 2025)", "key": {"IP-TOR (TOR)": {"biological_target": "IP-TOR (TOR) (Arabidopsis thaliana, UniProt Q9FR53)", "sequence (Q9FR53 whole entry)": "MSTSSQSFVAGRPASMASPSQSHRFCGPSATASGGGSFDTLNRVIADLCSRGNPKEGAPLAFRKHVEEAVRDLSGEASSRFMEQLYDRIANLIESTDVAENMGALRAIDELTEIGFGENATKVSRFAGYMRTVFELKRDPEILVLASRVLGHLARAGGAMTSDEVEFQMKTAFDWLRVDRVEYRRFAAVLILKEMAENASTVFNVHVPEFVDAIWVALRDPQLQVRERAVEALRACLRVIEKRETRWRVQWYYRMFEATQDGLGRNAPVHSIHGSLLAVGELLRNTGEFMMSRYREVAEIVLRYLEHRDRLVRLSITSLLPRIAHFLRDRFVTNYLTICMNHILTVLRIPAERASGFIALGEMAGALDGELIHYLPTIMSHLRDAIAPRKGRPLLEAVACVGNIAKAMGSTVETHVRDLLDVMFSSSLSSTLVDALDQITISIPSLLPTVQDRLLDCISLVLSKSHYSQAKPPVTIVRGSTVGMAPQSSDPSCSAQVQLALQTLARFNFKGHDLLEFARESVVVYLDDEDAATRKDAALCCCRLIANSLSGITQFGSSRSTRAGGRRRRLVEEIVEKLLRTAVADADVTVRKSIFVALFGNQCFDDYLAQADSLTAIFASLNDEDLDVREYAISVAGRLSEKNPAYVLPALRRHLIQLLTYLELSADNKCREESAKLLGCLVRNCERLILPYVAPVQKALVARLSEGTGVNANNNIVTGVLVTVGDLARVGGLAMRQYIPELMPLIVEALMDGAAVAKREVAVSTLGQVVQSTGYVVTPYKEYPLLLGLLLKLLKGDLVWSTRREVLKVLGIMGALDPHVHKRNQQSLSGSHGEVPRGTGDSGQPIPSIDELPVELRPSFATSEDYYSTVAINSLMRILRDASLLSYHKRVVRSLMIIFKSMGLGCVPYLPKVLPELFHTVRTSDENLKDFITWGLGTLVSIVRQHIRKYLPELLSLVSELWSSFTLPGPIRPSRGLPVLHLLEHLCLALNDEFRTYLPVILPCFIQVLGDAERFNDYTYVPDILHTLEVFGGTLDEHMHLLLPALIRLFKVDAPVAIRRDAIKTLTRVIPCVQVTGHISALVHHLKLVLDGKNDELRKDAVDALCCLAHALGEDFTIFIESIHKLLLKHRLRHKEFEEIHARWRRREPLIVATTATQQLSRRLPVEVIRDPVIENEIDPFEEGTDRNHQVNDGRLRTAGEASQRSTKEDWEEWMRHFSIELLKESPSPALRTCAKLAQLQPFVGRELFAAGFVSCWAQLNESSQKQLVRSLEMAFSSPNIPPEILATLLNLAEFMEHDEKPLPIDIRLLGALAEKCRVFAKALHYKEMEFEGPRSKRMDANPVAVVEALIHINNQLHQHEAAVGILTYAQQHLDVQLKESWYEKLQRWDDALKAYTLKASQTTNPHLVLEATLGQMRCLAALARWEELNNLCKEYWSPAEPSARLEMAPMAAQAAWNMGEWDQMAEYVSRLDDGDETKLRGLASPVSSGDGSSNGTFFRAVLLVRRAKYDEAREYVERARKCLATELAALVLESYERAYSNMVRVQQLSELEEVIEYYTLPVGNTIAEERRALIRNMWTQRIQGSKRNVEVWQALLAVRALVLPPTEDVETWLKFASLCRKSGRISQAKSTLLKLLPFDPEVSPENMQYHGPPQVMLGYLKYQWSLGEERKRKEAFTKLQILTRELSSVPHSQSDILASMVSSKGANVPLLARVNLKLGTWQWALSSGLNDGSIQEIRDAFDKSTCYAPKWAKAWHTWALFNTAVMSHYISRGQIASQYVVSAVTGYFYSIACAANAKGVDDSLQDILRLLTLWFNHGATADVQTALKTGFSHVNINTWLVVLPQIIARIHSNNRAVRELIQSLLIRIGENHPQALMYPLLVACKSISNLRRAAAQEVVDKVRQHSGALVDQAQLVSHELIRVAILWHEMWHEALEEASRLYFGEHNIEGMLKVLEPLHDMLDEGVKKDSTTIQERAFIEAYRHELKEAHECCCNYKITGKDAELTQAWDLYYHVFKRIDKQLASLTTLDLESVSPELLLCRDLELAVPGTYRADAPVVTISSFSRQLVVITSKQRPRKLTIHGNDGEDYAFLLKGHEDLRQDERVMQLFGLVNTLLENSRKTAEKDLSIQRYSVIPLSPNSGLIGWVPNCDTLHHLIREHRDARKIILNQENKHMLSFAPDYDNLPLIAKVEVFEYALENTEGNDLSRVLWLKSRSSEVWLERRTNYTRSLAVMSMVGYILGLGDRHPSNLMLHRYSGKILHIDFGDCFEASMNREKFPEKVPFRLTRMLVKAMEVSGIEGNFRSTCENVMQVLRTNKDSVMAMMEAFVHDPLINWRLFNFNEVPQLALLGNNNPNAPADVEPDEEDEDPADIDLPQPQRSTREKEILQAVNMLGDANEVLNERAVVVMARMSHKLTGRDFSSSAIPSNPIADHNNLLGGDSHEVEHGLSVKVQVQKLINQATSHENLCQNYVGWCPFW", "assay": "biochemical"}, "SnRK1 (in IP-TOR)": {"biological_target": "T1, SnRK1 (in IP-TOR) (Arabidopsis thaliana, UniProt Q38997)", "T1 sequence (Q38997 1-512)": "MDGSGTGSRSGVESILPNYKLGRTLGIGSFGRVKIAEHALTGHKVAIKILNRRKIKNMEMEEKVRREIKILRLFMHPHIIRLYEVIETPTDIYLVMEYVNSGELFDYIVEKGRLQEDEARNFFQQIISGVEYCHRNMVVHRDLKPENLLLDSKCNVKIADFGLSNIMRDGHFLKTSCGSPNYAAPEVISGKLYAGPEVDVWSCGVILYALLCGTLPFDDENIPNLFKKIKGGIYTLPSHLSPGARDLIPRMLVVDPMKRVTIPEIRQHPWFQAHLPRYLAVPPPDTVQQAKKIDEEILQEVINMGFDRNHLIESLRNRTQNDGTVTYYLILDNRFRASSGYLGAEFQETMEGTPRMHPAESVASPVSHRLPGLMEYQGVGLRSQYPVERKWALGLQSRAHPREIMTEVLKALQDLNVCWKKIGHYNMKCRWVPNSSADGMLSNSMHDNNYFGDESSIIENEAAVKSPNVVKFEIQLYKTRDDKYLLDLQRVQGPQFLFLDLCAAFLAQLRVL", "assay": "AMARA-peptide kinase assay with [γ-32P]ATP", "assay_type": "biochemical", "conditions": "IP-TOR sample; 200 μM AMARA peptide, 20 μM ATP, 10 mM MgCl2, pH 7.5, 30 °C"}}}
{"smiles": "Nc1ncnc2c1ncn2[C@@H]1O[C@H](COP(=O)(O)OP(=O)(O)OP(=O)(O)O)[C@@H](O)[C@H]1O", "note": "[ATP]", "values": [{"measurement": "Kd", "setting": "IP-TOR (TOR)", "result": "5.89 ± 0.83", "unit": "µM"}]}
{"smiles": "O=P(O)(O)OC[C@H]1O[C@H](O[C@H]2O[C@H](CO)[C@@H](O)[C@H](O)[C@H]2O)[C@H](O)[C@@H](O)[C@@H]1O", "note": "[T6P, Trehalose 6-phosphate]", "values": [{"measurement": "% reduction of activity at 1 mM", "setting": "SnRK1 (in IP-TOR)", "result": "> 50", "unit": "%"}]}
